The source of these data is patent US20150125506A1, “RETINAL PIGMENT EPITHELIAL CELLS DIFFERENTIATED FROM EMBRYONIC STEM CELLS WITH NICOTINAMIDE AND ACTIVIN A” (HADASIT MEDICAL RESEARCH SERVICES AND DEVELOPMENT LTD., priority 2007, published 2015).

Holding throughout (type): cell-based, human
The test system of one assay is hESC clusters. As to the kind of experiment: Indirect immunofluorescent staining of differentiated cells within clusters. As for the experimental part: To characterize the immunophenotype of cells within the aggregates, the clusters cultivated for 2, 4, 6 or 8 weeks were gently dissociated either with 0.04% trypsin/0.04% EDTA or with Papain Dissociation System (Worthington Biochemical, Lakewood, N.J.), and the resulting small clumps and single cells were plated in KO medium supplemented with NA on poly-D-lysine (30-70 kDa, 10-20 μg/ml) alone or supplemented with either laminin (4 μg/ml) or fibronectin (10-20 μg/ml; all from Sigma, St. Louis, http://www.sigmaaldrich.com). The cells were fixed with 4% paraformaldehyde after 2 hours and examined for the expression of nestin (1:200), polysialic acid NCAM (PSA-NCAM) (1:100), Musashi (1:200; all from Chemicon, Temecula, from CA), Pax6 (DSHB, 1:100 or Chemicon, 1:250), Otx2 (Chemicon, 1:200), MiTF (Lab Vision Corporation, Fremont, Calif.; mouse IgG1, 1:50).

The next assay relates to hESC-derived clusters. Description: Flow cytometry of PSA-NCAM and TRA-1-60 positive cells in hESC-derived clusters. As for the experimental part: Flow cytometric analysis was performed to determine the number of PSA-NCAM and TRA-1-60 positive cells at different time points within the hESC-derived clusters differentiating with or without nicotinamide supplementation. The clusters were dissociated with 0.04% Trypsin/0.04% EDTA. The single cells were then stained with anti-PSA-NCAM or anti-Tra-1-60 antibodies (both from Chemicon; 1:100), detected with goat anti-mouse immunoglobulins conjugated to FITC (Dako; 1:100), and counterstained with the cell viability dye Propidium iodide (0.005 mg/ml; Sigma) Control cells were incubated only with a secondary antibody. The cell-associated immunoreactivity was analyzed with FACScalibur (Becton Dickinson Immunocytometry Systems), using CellQuest software.

The next assay concerns hESCs. As to the kind of experiment: Differentiation of hESC free-floating clusters into pigmented (RPE) cells, counted as pigmented clusters and cells. As to the method: Human ESC (HES1 cell line) and hESCs engineered by lentiviral vector to constitutively express eGFP [Gropp M, Itsykson P, Singer O, Ben-Hur T, Reinhartz E, Galun E, and Reubinoff B E. Stable genetic modification of human embryonic stem cells by lentiviral vectors. Molecular Therapy 7:281-7 (2003)] were cultured on human foreskin fibroblasts feeder layers in KO medium (KOM) consisting of 86% KO-DMEM (Gibco, Invitrogen, Gaithersburg, Md.), 14% KOSR (Gibco), 1 mM glutamine, 1% nonessential amino acids, 50 units/ml penicillin (Gibco), 50 μg/ml streptomycin, (Gibco) and 4 ng/ml bFGF (R&D Systems, Inc., Minneapolis, Minn.). hES cells were weekly passaged with type IV collagenase (1 mg/ml; Gibco) and plated onto a fresh feeder layer. A week before induction of differentiation, the cells were passaged by dissociation into nearly a single-cell suspension with Ca/Mg^++-free PBS supplemented with 0.05% EDTA (Biological Industries, Beit Haemek, Israel) and were re-plated on the feeders.
Six-eight days after plating the hES cells that were dissociated into single cells as above; they were removed from the feeders by treatment with type IV collagenase. The clumps were cultured for various periods up to 12 weeks in suspension within bacteriological dishes precoated with 0.1% low melting temperature agarose in KO medium (KOM) consisting of 86% KO-DMEM, 14% KOSR, 1 mM glutamine, 1% nonessential amino acids, 50 units/ml penicillin, and 50 μg/ml streptomycin, in the presence or absence of 10 mM nicotinamide (NA) (Sigma, St. Louis, Mo., USA). In some experiments the medium used was Neurobasal™ medium (Gibco) supplemented with N2 supplement (1:100) (Gibco) (NN medium), which was substituted after 1 week with DMEM/F12 (Gibco) supplemented with B27 (1:50) (Gibco).
Human ESCs were allowed to differentiate as free-floating clusters in KOM as above for up to six weeks in the presence of nicotinamide (NA) 10 mM. After the first week or 2 weeks of differentiation, cultures were supplemented with activin A 20-180 ng/ml (PeproTech Inc, Rocky Hill, N.J.), with TGFβ3 (1 ng/ml; R&D Systems Inc, Minneapolis, Minn.) with TGFβ1 (1 ng/ml-20 ng/ml; R&D Systems Inc) or with SB431542 (5 μM-50 μM, Sigma). Control cultures were supplemented with NA alone.
Human ESCs in suspension in KOM were also supplemented after one week with the bone morphogenetic protein (BMP) antagonist noggin (700 ng/ml R&D Systems Inc, Minneapolis, Minn.) in the presence and absence of NA, or during the 3rd and 4th weeks with TGFβ (20 ng/ml PeproTech Inc) in the presence of NA and allowed to differentiate up to an age of 6 weeks as free-floating clusters in suspension.

Where [1] appears, read: 8 weeks of differentiation in presence of NA.
Setting [2] is: at 4 weeks, NA-treated clusters.
Setting [3] is: 4 weeks, NA with activin A vs NA without activin A.

As to `NC(=O)c1cccnc1` [NA, nicotinamide], the “percentage of cells expressing the early RPE marker MiTF” value with hESC clusters (setting [1]) turned out to be 5.4±1.1%. Also, in the assay with hESC clusters (setting [2]), the “percentage of cells expressing Musashi (immunofluorescence)” value stood at 71.4%, the “percentage of cells expressing PSA-NCAM (immunofluorescence)” value was 74.2±4.1% and the “percentage of cells expressing nestin (immunofluorescence)” value is listed as 55.9±10.1%. The “expression of TRA-1-60 (surface marker of undifferentiated cells)” value with hESC-derived clusters (FACS time course, NA treated vs untreated) is recorded as “declined more rapidly”. Also, the “percentage of cells expressing PSA-NCAM (FACS)” value in the assay with hESC-derived clusters (after 4 weeks of differentiation with NA) turned out to be 81.4±6.3%. In the assay with hESCs (setting [3]), the “percentage of clusters that included pigmented cells” value is 17.7±3.2% and the “percentage of pigmented cells from the total number of cells” value came to 2.4±1.2%. Besides, the “percentage of cells that were pigmented within clusters” value in the assay on hESCs (setting [1]) is given as 5.7±1.0%. For the same compound, the “percentage of clusters that had pigmented areas” value with hESCs (after 8 weeks of differentiation, KO medium with NA 10 mM) is on record as 72.9±2.5%.
